pIC50: −log10 of the molar value.
The molecules below were run against IDO1 (Homo sapiens, UniProt P14902) (assay: IDO1 Human Whole Blood Assay). Conditions: WBLD taken as whole blood; read-out: WBLD IC50.
Assay type: cell-based
Protocol: Compounds to be tested were serially diluted in ten 3-fold steps in DMSO starting from 10 mM. 3 μL of compound dilutions or DMSO alone were then dispensed from the dilution plate into a polypropylene 96-well assay plate containing 97 μL of RPMI medium using an Echo 555 acoustic liquid handler (Labcyte). LPS and IFNγ was prepared in RPMI medium to a 10× of final conc. (1000 ng/mL), final concentration is 100 ng/mL.
Human whole blood was drawn in sodium heparin coated tubes from healthy internal donors. 240 μL of blood was transferred to each of the wells of a v-bottom 96 well plate. 30 μL of compound was transferred from intermediate dilution plate, and incubated for 15 min. 30 μL from stimulants was then transferred to blood and mixed thoroughly. Plate was covered with breathable membrane and incubated at 37° C. for overnight (18 h).
On day 2, isotope labeled standard solutions of kunurenine and tryptophan was made in water at 10× concentration and 30 μL was added to the blood at 3 μM final concentration. The assay plates were centrifuged at 300×G for 10 min with no brake to separate plasma from red blood cells. 60 μL of plasma samples was removed without disturbing red blood cells. Plasma was diluted with RPMI in 1:1 ratio and proteins were precipitated out with two volumes of Acetonitrile. The plates were centrifuged at 4000×G for 60 min. 20 μL of supernatant was carefully transferred to a 384 well plate containing 40 μL of 0.1% formic acid in water and analyzed by LC/MS/MS.
LC/MS/MS analyses were performed using Thermo Fisher's LX4-TSQ Quantum Ultra system. This system consists of four Agilent binary high-performance liquid chromatography (HPLC) pumps and a TSQ Quantum Ultra triple quadrupole MS/MS instrument. For each sample, 5 μL were injected onto an Atlantis T3 column (2.1 mm×150 mm, 3 μm particle size) from Waters. The mobile phase gradient pumped at 0.8 mL/min was used to elute the analytes from the column at 25° C. The elution started at 0% B increasing linearly to 25% B at 6.5 min, holding at 25% for 1 min, re-equilibrating to 10 min. Mobile phase A consisted of 0.1% formic acid in water. Mobile phase B consisted of 0.1% of formic acid in acetonitrile. Data were acquired in positive mode using a HESI interface. The operational parameters for the TSQ Quantum Ultra instrument were a spray voltage of 4000 V, capillary temperature of 380° C., vaporizer temperature 400° C., shealth gas 60 arbitrary units, Aux gas 20 arbitrary units, tube lens 85 and collision gas 1.2 mTorr. SRM chromatograms of kynurenine (Q1: 209.2>Q3:94.0) and internal standard (Q1: 215.3>Q3:98.2) were collected for 90 sec. The peak area was integrated by Xcalibur Quan software. The ratios between the kynurenine generated in the reaction and 2D6-Kynurenine spiked-in internal standard were used to generate percentage inhibition and IC50 values. Compounds were titrated and IC50's were calculated by 4 parameter sigmoidal curve fitting formula.

Chain of IDO1 (P14902 whole entry): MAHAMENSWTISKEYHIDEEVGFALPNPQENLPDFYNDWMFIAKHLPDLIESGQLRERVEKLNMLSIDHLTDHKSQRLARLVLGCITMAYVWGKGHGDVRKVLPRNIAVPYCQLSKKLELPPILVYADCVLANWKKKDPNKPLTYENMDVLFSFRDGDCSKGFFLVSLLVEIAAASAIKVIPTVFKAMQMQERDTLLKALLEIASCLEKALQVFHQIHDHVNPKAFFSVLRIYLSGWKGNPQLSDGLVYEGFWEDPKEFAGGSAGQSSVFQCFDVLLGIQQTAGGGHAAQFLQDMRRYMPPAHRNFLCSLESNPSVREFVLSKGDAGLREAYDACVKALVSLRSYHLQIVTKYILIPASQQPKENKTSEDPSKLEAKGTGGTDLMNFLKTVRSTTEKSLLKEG

| Compound | pIC50 |
| --- | --- |
| C[C@@H]1CN(C(=O)c2nn(CC(=O)N3CCC(Oc4cc(F)ccc4Br)CC3)c3c2CCC3)C[C@H](C)O1 [Example 91, 1-[4-(2-bromo-5-fluorophenoxy)piperidin-1-yl]-2-{3-[(2R,6S)-2,6-dimethylmorpholine-4-carbonyl]-5,6-dihydrocyclopenta[c]pyrazol-1(4H)-yl}ethan-1-one] | 7.06 |
| Cc1ccccc1OC1CCN(C(=O)Cn2nc(C(=O)N3CC[C@@H](O)[C@@H](F)C3)c3c2CCC3)CC1 [Example 40, 2-(3-((3S,4R)-3-fluoro-4-hydroxypiperidine-1-carbonyl)-5,6-dihydrocyclopenta[c]pyrazol-1(4H)-yl)-1-(4-(o-tolyloxy)piperidin-1-yl)ethanone] | 6.97 |
| Cc1cc(F)ccc1OC1CCN(C(=O)Cn2nc(C(=O)N3CCO[C@H](CO)C3)c3c2CCCC3)CC1 [Example 81, 1-[4-(4-fluoro-2-methyl-phenoxy)-1-piperidyl]-2-[3-[(2S)-2-(hydroxymethyl)morpholine-4-carbonyl]-4,5,6,7-tetrahydroindazol-1-yl]ethanone] | 7.05 |
| Cc1ccccc1SC1CCN(C(=O)Cn2nc(C(=O)N3CC[C@@H](O)[C@@H](F)C3)c3c2C[C@H]2C[C@@H]32)CC1 [Example 177, 2-((3bR,4aR)-3-((3S,4R)-3-Fluoro-4-hydroxypiperidine-1-carbonyl)-3b,4,4a,5-tetrahydro-1H-cyclopropa[3,4]cyclopenta[1,2-c]pyrazol-1-yl)-1-(4-(o-tolylthio)piperidin-1-yl)ethanone] | 6.27 |
| Cc1ccccc1OC1CCN(C(=O)Cn2nc(C(=O)N3CCC(O)CC3)c3c2C[C@H]2C[C@@H]32)CC1 [Example 21, 2-((3bR,4aR)-3-(4-hydroxypiperidine-1-carbonyl)-3b,4,4a,5-tetrahydro-1H-cyclopropa[3,4]cyclopenta[1,2-c]pyrazol-1-yl)-1-(4-(o-tolyloxy)piperidin-1-yl)ethanone] | 7.40 |
| Cc1ccccc1OC1CCN(C(=O)Cn2nc(C(=O)N3CC[C@H](O)[C@H](F)C3)c3c2C[C@H]2C[C@@H]32)CC1 [Example 16, 2-((3bR,4aR)-3-((3R,4S)-3-fluoro-4-hydroxypiperidine-1-carbonyl)-3b,4,4a,5-tetrahydro-1H-cyclopropa[3,4]cyclopenta[1,2-c]pyrazol-1-yl)-1-(4-(o-tolyloxy)piperidin-1-yl)ethanone] | 7.33 |
| C[C@@H]1CN(C(=O)c2nn(CC(=O)N3CCC(Oc4ccc(F)cc4Cl)CC3)c3c2CCC3)C[C@H](C)O1 [Example 117, 1-[4-(2-chloro-4-fluorophenoxy)piperidin-1-yl]-2-{3-[(2R,6S)-2,6-dimethylmorpholine-4-carbonyl]-5,6-dihydrocyclopenta[c]pyrazol-1(4H)-yl}ethan-1-one] | 6.31 |
| C[C@@H]1C[C@H](Oc2ccccc2Cl)CCN1C(=O)Cn1nc(C(=O)N2CC[C@@H](O)[C@@H](F)C2)c2c1C[C@H]1C[C@@H]21 [Example 52, 1-((2R,4R)-4-(2-chlorophenoxy)-2-methylpiperidin-1-yl)-2-((3bR,4aR)-3-((3S,4R)-3-fluoro-4-hydroxypiperidine-1-carbonyl)-3b,4,4a,5-tetrahydro-1H-cyclopropa[3,4]cyclopenta[1,2-c]pyrazol-1-yl)ethanone] | 7.00 |
| Cc1ccc(Cl)c(OC2CCN(C(=O)Cn3nc(C(=O)N4C[C@@H](C)O[C@@H](C)C4)c4c3CCC4)CC2)c1 [Example 93, 1-[4-(2-chloro-5-methylphenoxy)piperidin-1-yl]-2-{3-[(2R,6S)-2,6-dimethylmorpholine-4-carbonyl]-5,6-dihydrocyclopenta[c]pyrazol-1(4H)-yl}ethan-1-one] | 6.58 |
| O=C(CO)N1CCN(C(=O)c2nn(CC(=O)N3CCC(Oc4ccccc4Cl)C4CC43)c3c2[C@@H]2C[C@@H]2C3)CC1 (single isomer, unassigned) [Example 170] | 6.99 |
| C[C@@H]1C[C@H](Oc2ccccc2Cl)CCN1C(=O)Cn1nc(C(=O)N2CCN(C(=O)CO)CC2)c2c1C[C@H]1C[C@@H]21 [Example 4, 1-((2R,4R)-4-(2-chlorophenoxy)-2-methylpiperidin-1-yl)-2-((3bR,4aR)-3-(4-(2-hydroxyacetyl)piperazine-1-carbonyl)-3b,4,4a,5-tetrahydro-1H-cyclopropa[3,4]cyclopenta[1,2-c]pyrazol-1-yl)ethanone] | 6.50 |
| Cc1cccc(F)c1OC1CCN(C(=O)Cn2nc(C(=O)N3C[C@@H](C)O[C@@H](C)C3)c3c2CCC3)CC1 [Example 138, 2-{3-[(2R,6S)-2,6-dimethylmorpholine-4-carbonyl]-5,6-dihydrocyclopenta[c]pyrazol-1(4H)-yl}-1-[4-(2-fluoro-6-methylphenoxy)piperidin-1-yl]ethan-1-one] | 6.62 |
| CC(=O)NC1CCN(C(=O)c2nn(CC(=O)N3CCC(Oc4ccccc4C)CC3)c3c2[C@@H]2C[C@@H]2C3)CC1 [Example 29, N-(1-((3bR,4aR)-1-(2-oxo-2-(4-(o-tolyloxy)piperidin-1-yl)ethyl)-3b,4,4a,5-tetrahydro-1H-cyclopropa[3,4]cyclopenta[1,2-c]pyrazole-3-carbonyl)piperidin-4-yl)acetamide] | 6.94 |
| O=C(c1nn(CC(=O)N2CCC(Oc3ccccc3Cl)C3CC32)c2c1[C@@H]1C[C@@H]1C2)N1CCC(OCCO)CC1 (single isomer, unassigned) [Example 171] | 6.82 |
| C[C@@H]1CN(C(=O)c2nn(CC(=O)N3CCC(Oc4cc(F)ccc4Cl)CC3)c3c2CCC3)C[C@H](C)O1 [Example 133, 1-[4-(2-chloro-5-fluorophenoxy)piperidin-1-yl]-2-{3-[(2R,6S)-2,6-dimethylmorpholine-4-carbonyl]-5,6-dihydrocyclopenta[c]pyrazol-1(4H)-yl}ethan-1-one] | 6.82 |

Second part, the molecule after the results:

| pIC50 | Compound |
| --- | --- |
| 7.56 | Cc1ccccc1OC1CCN(C(=O)Cn2nc(C(=O)N3CCC(OCCO)CC3)c3c2CCC3)CC1 [Example 19, 2-(3-(4-(2-hydroxyethoxy)piperidine-1-carbonyl)-5,6-dihydrocyclopenta[c]pyrazol-1(4H)-yl)-1-(4-(o-tolyloxy)piperidin-1-yl)ethanone] |
| 7.64 | Cc1ccccc1OC1CCN(C(=O)Cn2nc(C(=O)N3CC[C@H](O)[C@@H](F)C3)c3c2CCCC3)CC1 [Example 23, 2-(3-((3S,4S)-3-fluoro-4-hydroxypiperidine-1-carbonyl)-4,5,6,7-tetrahydro-1H-indazol-1-yl)-1-(4-(o-tolyloxy)piperidin-1-yl)ethanone] |
| 7.03 | Cc1ccccc1OC1CCN(C(=O)Cn2nc(C(=O)N3CCC(O)(CF)CC3)c3c2CCCC3)CC1 [Example 26, 2-(3-(4-(fluoromethyl)-4-hydroxypiperidine-1-carbonyl)-4,5,6,7-tetrahydro-1H-indazol-1-yl)-1-(4-(o-tolyloxy)piperidin-1-yl)ethanone] |
| 7.70 | Cc1ccccc1OC1CCN(C(=O)Cn2nc(C(=O)N3CCC(OCCO)CC3)c3c2CCCC3)CC1 [Example 20, 2-(3-(4-(2-hydroxyethoxy)piperidine-1-carbonyl)-4,5,6,7-tetrahydro-1H-indazol-1-yl)-1-(4-(o-tolyloxy)piperidin-1-yl)ethanone] |
| 6.73 | Cc1ccccc1OC1CCN(C(=O)Cn2nc(C(=O)N3CCC(F)(CO)CC3)c3c2CCC3)CC1 [Example 30, 2-(3-(4-fluoro-4-(hydroxymethyl)piperidine-1-carbonyl)-5,6-dihydrocyclopenta[c]pyrazol-1(4H)-yl)-1-(4-(o-tolyloxy)piperidin-1-yl)ethanone] |
| 7.07 | Cc1ccccc1OC1CCN(C(=O)Cn2nc(C(=O)N3CCC(O)CC3)c3c2CCC3)CC1 [Example 33, 2-(3-(4-hydroxypiperidine-1-carbonyl)-5,6-dihydrocyclopenta[c]pyrazol-1(4H)-yl)-1-(4-(o-tolyloxy)piperidin-1-yl)ethanone] |

Same assay, conditions: human whole blood, LPS and IFNγ 100 ng/mL, 18 h, kynurenine by LC/MS/MS; read-out: IDO1 human whole blood assay, IC50

| pIC50 | Compound |
| --- | --- |
| 6.27 | NC(=O)CN1CCN(C(=O)c2nn(CC(=O)N3CCC(Oc4ccccc4Cl)CC3)c3c2CCCC3)CC1 [Example 5, 2-(4-(1-(2-(4-(2-chlorophenoxy)piperidin-1-yl)-2-oxoethyl)-4,5,6,7-tetrahydro-1H-indazole-3-carbonyl)piperazin-1-yl)acetamide] |
| 6.20 | CC(=O)NC1CCN(C(=O)c2nn(CC(=O)N3CCC(Oc4ccccc4C)CC3)c3c2[C@@H]2C[C@@H]2C3)CC1 [Example 29, N-(1-((3bR,4aR)-1-(2-oxo-2-(4-(o-tolyloxy)piperidin-1-yl)ethyl)-3b,4,4a,5-tetrahydro-1H-cyclopropa[3,4]cyclopenta[1,2-c]pyrazole-3-carbonyl)piperidin-4-yl)acetamide] |
